Experimental data reported in ChEMBL document CHEMBL1152383, “Design and synthesis of indole, 2,3-dihydro-indole, and 3,4-dihydro-2H-quinoline-1-carbothioic acid amide derivatives as novel HCV inhibitors” (Bioorg Med Chem Lett, 2009).

Tests used:
[1] = tested on: Hepatitis C virus; assay: Antiviral activity against HCV 1b infected in human HuH7 cells assessed as inhibition of viral sub-genomic replication by EG(delta-4AB)SEAP reporter protein assay; type: functional, organism-based, Hepacivirus hominis; details: genotype 1b, Huh-7
[2] = Cytotoxicity against human HuH7 cells; type: cell-based, Huh-7
[3] = Selectivity index, ratio of CC50 for human HuH7 cells to EC50 for HCV 1b; design: species or system Huh-7

Row | SMILES | EC50 [1] [µM] | CC50 [2] [µM] | Ratio CC50/EC50 [3]
1 | NC(=S)Nc1cccc(Oc2ccccc2)c1 | 0.49 |  | 
2 | N#Cc1cccc(C(=O)NC(=S)N2CCc3c(OCCCCCOc4ccc(Cl)cc4)cccc32)c1 | 0.57 | 9.75 | 17
3 | N#Cc1ccc(C(=O)NC(=S)N2CCc3c(OCCCCCOc4ccc(Cl)cc4)cccc32)cc1 | 0.51 | > 50 | >98
4 | Cc1ccc(C(=O)NC(=S)N2CCc3c(OCCCCCOc4ccc(Cl)cc4)cccc32)cc1 | 1.94 | > 50 | >26
5 | S=C(NC(=S)N1CCc2c(OCCCCCOc3ccc(Cl)cc3)cccc21)Oc1ccccc1 | > 50 | > 50 | >1
6 | CN(C)c1ccc(C(=O)NC(=S)N2CCc3c(OCCCCCOc4ccc(Cl)cc4)cccc32)cc1 | 42.4 | > 50 | >1
7 | O=C(NC(=S)N1CCc2cc(OCc3ccccc3)ccc21)c1ccccc1 | 4.81 | 45.2 | 9
8 | O=C(NC(=S)N1CCc2c(OCCCCCOc3ccc(Cl)cc3)cccc21)c1cccnc1 | 2.37 | 11.1 | 5
9 | O=C(NC(=S)N1CCc2c(OCCCCCOc3ccc(Cl)cc3)cccc21)c1ccoc1 | 1.72 | 20.1 | 12
10 | O=C(NC(=S)N1CCc2c(OCCCCCOc3ccc(Cl)cc3)cccc21)c1cc2ccccc2s1 | 1.1 | > 50 | >45
11 | NC(=S)N1CCCc2c(OCCCCCOc3cccc4ccccc34)cccc21 | > 50 | > 50 | >1
12 | COc1ccc(C(=O)NC(=S)N2CCc3c(OCCCCCOc4ccc(Cl)cc4)cccc32)cc1 | 2.02 | 34.4 | 17
13 | O=C(NC(=S)N1CCc2c(OCCCCCOc3ccc(Cl)cc3)cccc21)c1ccc(Cl)cc1 | 0.69 | 21.7 | 31
14 | O=C(NC(=S)N1CCc2c(OCCCCCOc3ccc(Cl)cc3)cccc21)Oc1ccccc1 | > 50 | > 50 | >1
15 | O=C(NC(=S)N1CCc2ccc(OCc3ccccc3)cc21)c1ccccc1 | 5.05 | 43.8 | 9
16 | O=C(NC(=S)N1CCc2c(OCCCCCOc3ccc(Cl)cc3)cccc21)c1ccccc1[N+](=O)[O-] | 1.65 | > 50 | >30
17 | O=C(NC(=S)N1CCc2c(OCCCCCOc3ccc(Cl)cc3)cccc21)c1ccno1 | 2.06 | 37.1 | 18
18 | O=C(NC(=S)N1CCc2c(OCCCCCOc3ccc(Cl)cc3)cccc21)c1cccs1 | 0.66 | 10.7 | 16
19 | O=C(NC(=S)N1CCc2c(OCCCCCOc3ccc(Cl)cc3)cccc21)C1CCCCC1 | 42.5 | > 50 | >1

Row | SMILES | EC50 [1] [µM] | CC50 [2] [µM] | Ratio CC50/EC50 [3]
20 | O=C(NC(=S)N1CCc2c(OCc3ccccc3)cccc21)c1ccccc1 | 3.18 | > 50 | >16
21 | CC(C)(C)c1ccc(C(=O)NC(=S)N2CCc3c(OCCCCCOc4ccc(Cl)cc4)cccc32)cc1 | 1.95 | > 50 | >26
22 | O=C(NC(=S)N1CCc2c(OCCCCCOc3ccc(Cl)cc3)cccc21)c1ccc(Br)cc1 | 0.88 | 29.1 | 33
23 | O=C(NC(=S)N1CCc2c(OCCCCCOc3ccc(Cl)cc3)cccc21)c1cccc([N+](=O)[O-])c1 | 0.58 | 12.1 | 21
24 | O=C(NC(=S)N1CCc2c(OCCCCCOc3ccc(Cl)cc3)cccc21)c1ccsc1 | 1.02 | > 50 | >49
25 | NC(=S)N1CCc2c(OCCCCCOc3ccc(Cl)cc3)cccc21 | 4.71 | > 50 | >11
26 | O=C(NC(=S)N1CCc2c(OCCCCCOc3ccc(Cl)cc3)cccc21)c1ccc([N+](=O)[O-])cc1 | 0.72 | 13.6 | 19
27 | NC(=S)n1ccc2c(OCCCCCOc3ccc(Cl)cc3)cccc21 | 24.5 | 24.7 | 1
28 | O=S(=O)(NC(=S)N1CCc2c(OCCCCCOc3ccc(Cl)cc3)cccc21)c1ccccc1 | > 50 | > 50 | >1
29 | O=C(CCc1ccccc1)NC(=S)N1CCc2c(OCCCCCOc3ccc(Cl)cc3)cccc21 | 13.4 | > 50 | >4
30 | O=C(NC(=S)N1CCc2c(OCCCCCOc3ccc(Cl)cc3)cccc21)c1ccc2ccccc2c1 | 2.16 | > 50 | >23
31 | O=C(NC(=S)N1CCc2c(OCCCCCOc3ccc(Cl)cc3)cccc21)c1ccc(C(F)(F)F)cc1 | 1.23 | 32.7 | 27
32 | O=C(NC(=S)N1CCc2c(OCCCCCOc3ccc(Cl)cc3)cccc21)c1ccccc1 | 0.79 | > 50 | > 63
33 | O=C(NC(=S)N1CCc2cccc(OCc3ccccc3)c21)c1ccccc1 | > 50 | > 50 | >1
34 | O=C(NC(=S)N1CCc2c(OCCCCCOc3ccc(Cl)cc3)cccc21)c1ccco1 | 0.58 | 4.62 | 8
35 | CCCC(=O)NC(=S)N1CCc2c(OCCCCCOc3ccc(Cl)cc3)cccc21 | 31.6 | > 50 | 2
36 | O=C(NC(=S)N1CCc2c(OCCCCCOc3ccc(Cl)cc3)cccc21)c1ccc(F)cc1 | 0.95 | 31.1 | 33
37 | O=C(NC(=S)N1CCc2c(OCCCCCOc3ccc(Cl)cc3)cccc21)C1CCCC1 | 25.4 | > 50 | >2
38 | O=C(NC(=S)n1ccc2c(OCCCCCOc3ccc(Cl)cc3)cccc21)c1ccccc1 | 4.06 | 29.5 | 7
